Experiment: DPPH radical scavenging antioxidant test
Assay type: biochemical
Conditions: 517 nm; for Inhibition (radical scavenging inhibition): compound 3 μM in ethanol, 0.2 mL DPPH (0.75 mM), 30 min incubation in the dark
Procedure: The antioxidant properties of the 4,4′-naphthalene-1,5-diylbis(diazene-2,1-diyl)dibenzene-1,2-diol were studied by adding 0.2 mL DPPH (0.75 mM)) to compound 4,4′-naphthalene-1,5-diylbis(diazene-2,1-diyl)dibenzene-1,2-diol (III) (3 μM) in ethanol. After 30 min of incubation in the dark, the absorbance was read against a blank at 517 nm. Ascorbic acid (vitamin C) was used as standard antioxidants (positive control). A blank sample was prepared by 0.2 ml of DPPH in 3 ml ethanol. A negative control sample was run using ethanol instead of the sample. The radical scavenging inhibition was calculated using the following equation: […]

Oc1ccc(/N=N/c2cccc3c(/N=N/c4ccc(O)c(O)c4)cccc23)cc1O [Product III, 4,4′-naphthalene-1,5-diylbis(diazene-2,1-diyl)dibenzene-1,2-diol]
antioxidant potential (DPPH) compared to vitamin C (DPPH in vitro test, vitamin C as positive control): high potential as an antioxidant compared to vitamin C
Inhibition (radical scavenging inhibition): 50%

O=C1O[C@H]([C@@H](O)CO)C(O)=C1O [vit c, Ascorbic acid, reference compound]
Inhibition (radical scavenging inhibition): 74%

Reference: patent publication US11926576B1, “4,4′-naphthalene-1,5-diylbis(diazene-2,1-diyl)dibenzene-1,2-diol as an antioxidant compound” (KING FAISAL UNIVERSITY, priority 2023, dated 2024)
